Assay results as given in patent publication US12030897B2, “Pyrrolo[2,1-f][1,2,4]triazine derivatives serving as selective HER2 inhibitors and application thereof” (MEDSHINE DISCOVERY INC., priority 2018, dated 2024).
Like-named read-outs stand apart in the source and are kept apart here.

What was measured:
HER1 (ErbB1) = HER1 (ErbB1) (Homo sapiens (Human), UniProt P00533); test: In vitro enzyme activity, HER1 (ErbB1), [γ-33P]ATP filter assay; assay type: biochemical
Procedure: The object of this test is to detect the in vitro inhibitory activity of the compound against HER1 (ErbB1), HER2 (ErbB2) and HER4 (ErbB4). The enzymes used in this test were human ErbB1, ErbB2 and ErbB4.
Experimental Steps and Methods (96-Well Plate):
5-fold diluted tested compound buffer (5 μL), peptide substrate poly(Glu, Tyr) (4:1) (2.5 μL), ErbB (4-20 ng, 2.5 μL), MnCl2 (50 mM, 1.25 μL), dH2O (3.75 μL) and [γ-^33P]ATP (10 μL) were added, and incubated at 30° C. for 10 min. 3% phosphoric acid was added to terminate the reaction, and 10 μL of the specimen was transferred to Filtermate A. The filter was washed with 75 mM phosphoric acid for three times and methanol once, and transferred to a sealed plastic bag, and a scintillation fluid mixture (4 mL) was added, The intensity of the emitted photons was detected on the scintillation luminescence counter. The photon intensity of the enzyme sample was compared with the photon intensity of the internal control sample, and the level of photon intensity reflected the strength of the tyrosine kinase activity.

NCI-N87 cell = test: Cell proliferation inhibitory activity, Cell-Titer-Glo, NCI-N87; assay type: cell-based, human; conditions: Homo sapiens, NCI-N87, 72 h; 3 days incubation
Description: Experiment object: to detect the inhibitory activity of the tested compound on cell proliferation.
Experimental principle: the luciferase in the Cell-Titer-Glo reagent uses luciferin, oxygen and ATP as reaction substrates to produce oxyluciferin and release energy in the form of light. Since the luciferase reaction requires ATP, the total amount of light produced by the reaction is proportional to the total amount of ATP that reflects cell viability.
Experimental Materials: • cell lines: NCI-N87 cell line (ATCC-CRL-5822); BT-474 cell line (ATCC-HTB-20) • Cell culture medium: RPMI 1640 medium (Invitrogen #22400-105; 10% serum Invitrogen #10090148; L-glutamine 1×, Gibco #25030-081; double antibody Hyclone #SV30010) • CellTiter-Glo® luminescence cell viability detection kit (Promega #G7573) • 384-well cell culture plate (Greiner #781090) • Compound plate (LABCYTE #LP-0200) • CO2 incubator (Thermo #371) • Vi-cell cell counter (Beckman Coulter) • Pipette (Eppendorf) • Pipette (Greiner) • Pipetting gun (Eppendorf) • Multifunctional microplate reader (Envision Reader) • ECHO Liquid-handling workstation (Labcyte-ECHO555)
The cells were inoculated in a 384-well plate with a density of 1000 cells per well and 25 μL per well. The edge wells were not inoculated with cells, and was supplemented with 25 μL of phosphate buffer.
The compound was added to the plate with 9 μL per well.
(2) The compound was diluted with ECHO liquid-handling workstation, and each well of the cell plate was added with 125 nL of compound. Each well of the cell wells of columns 2 and 23 was added with 125 nL of DMSO, and each well of the Media wells of columns 1 and 24 was added with 125 nL of DMSO.
(3) Each well of the cell plate was supplemented with 25 μL of culture medium, and the final volume in each well of the cell plate was 50 μL. The concentration of the compound was 10 μM, which was subjected to 3 fold dilution to obtain 10 concentrations. Each concentration was duplicated in left and right wells, and the final DMSO concentration was 0.25%.
2.3 After adding the compound, it was centrifuged at 1000 rpm for 1 min. The cell plate was placed in a 37° C., 5% CO2 incubator for 3 days.
The cell plate was taken from the incubator and equilibrated at room temperature for 30 min. 25 μL of Cell-Titer-Glo reagent was added to each well, shaken for 1 min to make it thoroughly mixed, and centrifuged at 1000 rpm for 1 min. After 10 min, the plate was read on PerkinElmer Envision, and the […] reading time was set to 0.2 seconds.

[1] = Pharmacokinetic properties in mice; assay type: in vivo; conditions: female, Balb/c; for clearance / Vd / bioavailability: plasma, mouse; for Vd: read-out: Vdss; for bioavailability: read-out: F (bioavailability); for AUC(0-inf) / AUC(0-t) / half-life / Cmax: mouse plasma
Procedure: The tested compound was dissolved in 10% DMSO/45% PEG400/45% water, vortexed and sonicated to prepare a clear solution with the corresponding concentration, which was filtered through a millipore filter for use. 18 to 20 grams of Balb/c female mice were selected, and the candidate compound solution was administered intravenously at a dose of 1 or 2 mg/kg. The tested compound was dissolved in 10% NMP/10% polyethylene glycol-15-hydroxystearate/80% water, vortexed and sonicated to prepare a clear solution with the corresponding concentration, which was filtered through a millipore filter for use. 18 to 20 grams of Balb/c female mice were selected, and the candidate compound solution was administered orally at a dose of 2 or 10 mg/kg. The whole-blood for a certain period of time was collected to prepare plasma. The drug concentration was analyzed by the LC-MS/MS method, and the pharmacokinetic parameters were calculated by the Phoenix WinNonlin software (Pharsight, USA).

Chain of HER1 (ErbB1) (P00533 25-1210): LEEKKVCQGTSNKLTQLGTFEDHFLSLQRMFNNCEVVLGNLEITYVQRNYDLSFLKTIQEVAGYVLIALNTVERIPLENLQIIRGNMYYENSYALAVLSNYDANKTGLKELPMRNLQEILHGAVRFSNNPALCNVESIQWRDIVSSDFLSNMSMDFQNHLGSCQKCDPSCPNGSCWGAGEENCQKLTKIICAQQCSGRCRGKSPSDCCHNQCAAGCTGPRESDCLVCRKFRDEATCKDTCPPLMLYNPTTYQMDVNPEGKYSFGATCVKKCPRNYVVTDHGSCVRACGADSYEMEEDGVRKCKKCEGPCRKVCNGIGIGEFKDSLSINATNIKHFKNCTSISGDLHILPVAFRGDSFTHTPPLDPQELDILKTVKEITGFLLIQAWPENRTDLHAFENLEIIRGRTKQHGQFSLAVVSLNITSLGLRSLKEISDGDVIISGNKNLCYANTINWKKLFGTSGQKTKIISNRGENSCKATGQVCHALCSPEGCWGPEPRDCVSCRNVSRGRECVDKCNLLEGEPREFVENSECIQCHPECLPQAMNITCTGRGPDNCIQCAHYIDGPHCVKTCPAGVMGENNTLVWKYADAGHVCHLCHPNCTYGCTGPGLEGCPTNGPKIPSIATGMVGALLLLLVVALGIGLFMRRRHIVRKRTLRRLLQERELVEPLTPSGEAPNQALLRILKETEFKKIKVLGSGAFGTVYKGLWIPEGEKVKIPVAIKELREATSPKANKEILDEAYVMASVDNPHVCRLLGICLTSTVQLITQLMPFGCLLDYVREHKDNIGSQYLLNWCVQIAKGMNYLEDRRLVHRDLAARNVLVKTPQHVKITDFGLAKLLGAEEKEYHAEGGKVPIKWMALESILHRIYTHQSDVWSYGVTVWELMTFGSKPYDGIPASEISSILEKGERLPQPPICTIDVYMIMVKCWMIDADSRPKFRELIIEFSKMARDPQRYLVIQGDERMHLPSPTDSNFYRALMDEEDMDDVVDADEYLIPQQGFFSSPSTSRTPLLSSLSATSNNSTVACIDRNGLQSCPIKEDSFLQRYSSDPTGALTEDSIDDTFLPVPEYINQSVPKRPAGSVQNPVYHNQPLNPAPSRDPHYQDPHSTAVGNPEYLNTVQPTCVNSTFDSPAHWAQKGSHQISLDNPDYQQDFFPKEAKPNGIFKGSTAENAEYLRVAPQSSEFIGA

Compound: Cc1cc(Nc2ncnn3ccc(CN4CCC(N)CC4)c23)ccc1Oc1ccn2ncnc2c1 [Example 4]
- IC50 (HER1 (ErbB1)): 161 nM
- IC50 (NCI-N87 cell): 7 nM
- clearance ([1]; IV 1 mg/kg): 19.2 mL/min/kg
- Vd ([1]; IV 1 mg/kg): 2.3 L/kg
- clearance ([1]; IV 2 mg/kg): 33 mL/min/kg
- Vd ([1]; IV 2 mg/kg): 2.81 L/kg
- bioavailability ([1]; PO 2 mg/kg): 22.7%
- bioavailability ([1]; PO 10 mg/kg): 40.2%
- AUC(0-inf) ([1]; IV 1 mg/kg): 1.57 µM·h
- AUC(0-t) ([1]; IV 1 mg/kg): 1.52 µM·h
- half-life ([1]; IV 1 mg/kg): 1.65 h
- AUC(0-inf) ([1]; IV 2 mg/kg): 2.15 µM·h
- AUC(0-t) ([1]; IV 2 mg/kg): 2.13 µM·h
- half-life ([1]; IV 2 mg/kg): 1.34 h
- AUC(0-inf) ([1]; PO 2 mg/kg): 0.95 µM·h
- AUC(0-t) ([1]; PO 2 mg/kg): 0.928 µM·h
- Cmax ([1]; PO 2 mg/kg): 306 nM
- half-life ([1]; PO 2 mg/kg): 1.37 h
- AUC(0-inf) ([1]; PO 10 mg/kg): 4.33 µM·h
- AUC(0-t) ([1]; PO 10 mg/kg): 4.28 µM·h
- Cmax ([1]; PO 10 mg/kg): 1250 nM
- half-life ([1]; PO 10 mg/kg): 1.08 h
